The target in the experiment is T1, glyc-HS2ST (glycosylated human HS2ST), WT (Homo sapiens, UniProt Q7LGA3).
T1 construct: the human HS2ST catalytic domain region comprising of 328 amino acid residues; His8 (N, cleaved yes); AviTag (N, cleaved yes); superfolder GFP (N, cleaved yes); made in house; host or cells: HEK293-F (transient transfection, secreted)
T1 sequence (Q7LGA3 29-356 limits assumed): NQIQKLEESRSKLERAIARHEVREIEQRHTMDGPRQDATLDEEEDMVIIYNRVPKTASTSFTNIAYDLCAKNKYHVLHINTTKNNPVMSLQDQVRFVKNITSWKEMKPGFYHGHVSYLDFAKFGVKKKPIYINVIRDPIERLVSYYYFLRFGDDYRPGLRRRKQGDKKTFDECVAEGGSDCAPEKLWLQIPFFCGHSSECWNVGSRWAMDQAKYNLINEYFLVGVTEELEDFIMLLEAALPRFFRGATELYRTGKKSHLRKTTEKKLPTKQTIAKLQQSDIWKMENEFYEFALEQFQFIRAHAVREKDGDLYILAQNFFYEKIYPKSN
Description: BLI equilibrium binding, glyc-HS2ST WT. The following applies: BLI saturation binding curves, biotin-PEG4-linked hexasaccharide immobilised on sensor, n = 3, ± standard error of fit, 25 °C, PBS pH 7.8. The source says:
HS-protein binding studies often utilize biologically-derived oligosaccharides of heterogeneous length and sulfation[34],[35]; however, the synthesis of oligosaccharides with defined length and specific sulfation patterns has recently become possible. We employed biolayer interferometry (BLI) to determine equilibrium surface binding constants (KD) for HS2ST with synthetic HS hexasaccharides (Fig. 1 and Supplementary Table 1). The HS compounds were attached to the BLI biosensor surface to conserve sample and to ensure a significant signal upon protein binding. The HS compounds contained a biotinylated PEG4 linker at the reducing terminus, enhancing the likelihood of a consistent presentation of the linear glycan on the sensor surface, in contrast to immobilizations via intra-chain modifications. […]
An expression construct was generated encoding the truncated catalytic domain of human HS2ST as an NH2-terminal fusion protein in the pGEn2 expression vector essentially as described in prior studies. […] The recombinant human HS2ST was expressed as a soluble secreted protein by transient transfection of suspension culture HEK293-F cells (FreeStyle^TM 293-Fcells, Thermo Fisher Scientific, Waltham MA) maintained at 0.5–3.0 × 10^6 cells/ml in a humidified CO2 platform shaker incubator at 37 °C with 55% humidity. […]

This note sets out measurements from publication PMC6081452, “Downstream Products are Potent Inhibitors of the Heparan Sulfate 2-O-Sulfotransferase” (Scientific Reports, 2018).

“GlcNS-GlcA-GlcNS-IdoA2S-GlcNS-GlcA~ [Compound 2]” had a dissociation constant Kd of 0.138 ± 0.019 µM.
